Test results reported in paper PMC11286609, “In vitro and in vivo analyses of eFAP: a novel FAP-targeting small molecule for radionuclide theranostics and other oncological interventions” (EJNMMI Radiopharmacy and Chemistry, 2024).

Experiments:
huFAP = target: T1, huFAP (Homo sapiens, UniProt Q12884); assay: Recombinant enzymatic inhibition assay, huFAP (Z-Gly-Pro-AMC); type: biochemical; conditions: n = 3, picture: nM ± 95% CI
T1 sequence (Q12884 1-760): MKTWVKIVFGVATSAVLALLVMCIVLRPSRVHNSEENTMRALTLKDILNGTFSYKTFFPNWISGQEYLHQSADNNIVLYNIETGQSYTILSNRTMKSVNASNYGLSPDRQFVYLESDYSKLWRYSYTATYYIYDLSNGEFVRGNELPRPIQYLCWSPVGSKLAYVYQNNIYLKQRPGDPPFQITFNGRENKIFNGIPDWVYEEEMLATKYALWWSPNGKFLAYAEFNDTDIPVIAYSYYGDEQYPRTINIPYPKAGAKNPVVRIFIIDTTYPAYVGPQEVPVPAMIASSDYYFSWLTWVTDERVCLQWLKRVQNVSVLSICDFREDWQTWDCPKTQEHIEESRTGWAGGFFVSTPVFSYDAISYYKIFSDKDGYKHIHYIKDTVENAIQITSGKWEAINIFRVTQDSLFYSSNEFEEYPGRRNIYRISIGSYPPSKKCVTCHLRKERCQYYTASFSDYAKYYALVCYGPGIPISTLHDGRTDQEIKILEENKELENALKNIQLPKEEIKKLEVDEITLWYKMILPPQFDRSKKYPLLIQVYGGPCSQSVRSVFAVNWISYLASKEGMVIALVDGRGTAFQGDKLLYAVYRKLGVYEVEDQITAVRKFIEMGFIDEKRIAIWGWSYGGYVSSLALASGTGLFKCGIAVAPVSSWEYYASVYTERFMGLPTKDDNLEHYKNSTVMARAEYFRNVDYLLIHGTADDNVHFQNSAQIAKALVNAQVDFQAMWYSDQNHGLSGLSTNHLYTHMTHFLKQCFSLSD
Description: (§1) All enzymatic assays were performed in black 384-well plates, and enzymatic activity was measured on a microplate reader, monitoring the fluorescence at λEX 350 nm/λEM 485 nm. […] Val-boroPro (10^− 4 M) and assay buffer served as a positive and negative control, respectively. To measure inhibition of PREP, 50 µL of the reaction mixture containing 1 µM Z-Gly-Pro-AMC and 10 ng PREP (R&D Systems; Minneapolis, MN, USA) were used. The enzymatic assay of DPP4 contained substrate (100 µM), DPP4 (Abcam; Cambridge, UK) (10 nM), assay buffer, and increasing concentrations of the inhibitors (10^− 10 M to 10^− 4 M). Sitagliptin (10^− 4 M) and assay buffer were used as a positive and negative control, respectively. H-Gly-Pro-AMC (100 µM) in assay buffer was used as a baseline control. The plates were analyzed in a Hidex Sense Microplate reader (Hidex; Turku, Finland) at 37 °C under dark conditions for 1 h (huFAP), 2 h (muFAP), or 30 min (PREP, DPP4). For all assays, the components were kept on ice before plating.
(§2) All statistical analyses were performed with GraphPad Prism version 9.0 (San Diego, California USA). All IC50 values were determined using a non-linear regression Log(inhibitor) vs. response analysis with variable slope (four parameters). For the in vivo results outliers were identified by a ROUT test (Q = 1%) and excluded. Next, a two-tailed student’s t-test was performed (*p < 0.05, **p < 0.01, ***p < 0.001). All experiments were performed in triplicate and repeated at least three times.

muFAP = target: T2, muFAP (Mus musculus, UniProt P97321); assay: Recombinant enzymatic inhibition assay, muFAP (Z-Gly-Pro-AMC); type: biochemical, murine; conditions: n = 3, picture: nM ± 95% CI
T2 sequence (P97321 1-761): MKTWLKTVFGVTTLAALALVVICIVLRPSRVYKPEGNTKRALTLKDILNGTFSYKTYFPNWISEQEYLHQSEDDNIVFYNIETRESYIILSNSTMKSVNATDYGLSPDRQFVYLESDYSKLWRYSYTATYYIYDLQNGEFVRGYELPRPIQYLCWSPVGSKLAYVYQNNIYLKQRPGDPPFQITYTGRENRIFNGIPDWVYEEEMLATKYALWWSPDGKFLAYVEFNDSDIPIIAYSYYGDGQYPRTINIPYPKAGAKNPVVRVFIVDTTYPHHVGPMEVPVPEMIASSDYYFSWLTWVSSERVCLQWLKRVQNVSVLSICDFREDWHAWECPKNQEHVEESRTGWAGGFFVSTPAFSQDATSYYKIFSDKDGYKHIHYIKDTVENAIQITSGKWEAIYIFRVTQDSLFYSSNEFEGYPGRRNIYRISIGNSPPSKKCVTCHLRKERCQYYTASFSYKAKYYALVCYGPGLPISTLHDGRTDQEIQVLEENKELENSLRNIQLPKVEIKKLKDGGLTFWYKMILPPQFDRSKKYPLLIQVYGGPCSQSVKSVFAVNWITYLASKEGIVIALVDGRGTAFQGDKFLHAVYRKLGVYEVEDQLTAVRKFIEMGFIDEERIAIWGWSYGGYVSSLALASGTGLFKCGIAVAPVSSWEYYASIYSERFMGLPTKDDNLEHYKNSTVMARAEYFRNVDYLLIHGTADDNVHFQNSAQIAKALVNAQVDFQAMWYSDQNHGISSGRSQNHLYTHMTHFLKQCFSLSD
Description: as §1, §2

[1] = target: T3, prolyl oligopeptidase (PREP) (Homo sapiens, UniProt P48147); assay: Enzymatic inhibition assay, PREP; type: biochemical; conditions: for IC50: recombinant PREP, n = 3, picture: nM ± 95% CI; for SI PREP/huFAP: selectivity index, IC50 PREP / IC50 huFAP
T3 construct: purchased R&D Systems
T3 sequence (P48147 1-710): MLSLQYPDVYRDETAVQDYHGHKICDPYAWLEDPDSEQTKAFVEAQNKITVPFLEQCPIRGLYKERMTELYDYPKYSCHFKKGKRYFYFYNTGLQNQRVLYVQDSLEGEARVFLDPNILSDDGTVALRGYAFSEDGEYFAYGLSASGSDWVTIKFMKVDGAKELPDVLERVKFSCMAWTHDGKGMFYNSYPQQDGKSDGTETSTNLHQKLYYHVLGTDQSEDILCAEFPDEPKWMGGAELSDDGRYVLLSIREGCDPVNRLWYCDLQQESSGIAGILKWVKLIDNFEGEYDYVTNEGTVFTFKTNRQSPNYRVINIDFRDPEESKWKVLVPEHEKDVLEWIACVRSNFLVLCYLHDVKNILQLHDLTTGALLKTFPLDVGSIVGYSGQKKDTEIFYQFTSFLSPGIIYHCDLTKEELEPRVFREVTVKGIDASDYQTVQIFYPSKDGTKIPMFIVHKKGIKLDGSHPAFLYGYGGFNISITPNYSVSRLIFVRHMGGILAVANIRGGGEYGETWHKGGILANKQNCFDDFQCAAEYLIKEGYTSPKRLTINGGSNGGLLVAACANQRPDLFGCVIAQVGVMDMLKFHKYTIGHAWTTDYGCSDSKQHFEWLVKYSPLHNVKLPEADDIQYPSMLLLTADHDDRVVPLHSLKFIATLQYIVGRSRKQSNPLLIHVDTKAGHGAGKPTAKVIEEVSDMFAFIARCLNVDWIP
Description: as §1, §2

Compound | IC50 (huFAP) [nM] | IC50 (muFAP) [nM] | IC50 [1] [nM] | SI PREP/huFAP [1]
N#C[C@@H]1CC(F)(F)CN1C(=O)CNC(=O)c1ccnc2c(OCCCNC(=O)CN3CCN(CC(=O)O)CCN(CC(=O)O)CCN(CC(=O)O)CC3)cccc12 [eFAP-6, (S)-2,2',2''-(10-(2-((3-((4-((2-(2-cyano-4,4-difluoropyrrolidin-1-yl)-2-oxoethyl)carbamoyl)quinolin-8-yl)oxy)propyl)amino)-2-oxoethyl)-1,4,7,10-tetraazacyclododecane-1,4,7-triyl)triacetic acid] | 1.16 ± 0.04 | 0.58 ± 0.02 | 161 ± 53.6 | 138.6
CN1/C(=C/C=C/C=C/C2=[N+](CCCCCC(=O)NCCCOc3cccc4c(C(=O)NCC(=O)N5CC(F)(F)C[C@H]5C#N)ccnc34)c3ccc(S(=O)(=O)[O-])cc3C2(C)C)C(C)(C)c2cc(S(=O)(=O)O)ccc21 [eFAP-7, 1-(6-((3-((4-((2-((S)-2-cyano-4,4-difluoropyrrolidin-1-yl)-2-oxoethyl)carbamoyl)quinolin-8-yl)oxy)propyl)amino)-6-oxohexyl)-3,3-dimethyl-5-sulfo-2-((1E,3E)-5-((E)-1,3,3-trimethyl-5-sulfoindolin-2-ylidene)penta-1,3-dien-1-yl)-3H-indol-1-ium] | 4.23 ± 0.5 | 4.56 ± 0.2 | 475 ± 104 | 112.3
CN(CCCN1CCN(C(=O)CN2CCN(CC(=O)O)CCN(CC(=O)O)CCN(CC(=O)O)CC2)CC1)c1ccc2nccc(C(=O)NCC(=O)N3CC(F)(F)C[C@H]3C#N)c2c1 [FAPI-46, reference compound] | 3.87 ± 2.7 | 1.55 ± 1.2 | 3480 ± 172 | –
